Experimental data from patent publication US20090281126A1, “Organic Compounds” (Novartis AG, priority 2006, published 2009).

Experiments:
human A3 receptors = biological target: T1, human A3 receptors (Homo sapiens, UniProt P0DMS8); assay: A3 binding assay ([125I]-AB-MECA radioligand, CHO membranes); conditions: [125I]-AB-MECA 0.25 nM
T1 construct: expressed in transfected cells; membranes prepared in house
T1 sequence (P0DMS8 1-318): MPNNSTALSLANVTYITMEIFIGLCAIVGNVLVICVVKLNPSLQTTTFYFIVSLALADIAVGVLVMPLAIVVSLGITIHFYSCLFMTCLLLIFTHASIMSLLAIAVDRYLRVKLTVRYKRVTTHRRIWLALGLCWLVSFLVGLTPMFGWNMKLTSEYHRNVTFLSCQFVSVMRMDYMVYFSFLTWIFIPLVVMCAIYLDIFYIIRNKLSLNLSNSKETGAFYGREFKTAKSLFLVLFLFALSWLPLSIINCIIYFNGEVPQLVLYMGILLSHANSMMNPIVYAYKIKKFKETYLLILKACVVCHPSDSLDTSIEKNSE
Method: Compounds in the present invention were tested in an A3 binding assay using the iodinated ligand [^125I]-AB-MECA with membranes prepared from CHO cells stably expressing human A3 receptors.
Radioligand binding to the CHO A3 membranes was performed using radio-labelled agonist [^125I]-AB-MECA at a concentration range of 0.002-5 nM to obtain saturation binding. Binding experiments were performed in duplicate using 2.5 μg membrane in a total volume of 200 μL of assay buffer. The non-specific binding was determined in the presence of 10 μM of the agonist I-AB-MECA.
The assay was performed in a final volume of 200 μL/well, in a U-bottomed polypropylene 96-well plate. […] Total binding was determined using 50 μL vehicle. Non-specific binding was determined using 50 μL of 40 μM I-AB-MECA, to give a final assay concentration of 10 μM. • 50 μL [^125I]-AB-MECA at a concentration of 1 nM (4×), to give a final assay concentration of 0.25 nM. • 100 μL CHO A3 membranes at a concentration of 25 μg/mL in assay buffer containing 4 U/mL adenosine deamin ase (ADA) (final assay concentration of 2 U/mL), to give a final assay concentration of 2.5 μg/well.
Compound dilution were prepared on a Biomek 2000 to give a series of 10 concentrations from 40-0.002 μM (4×). […] Total binding was determined in the absence of I-AB-MECA and non specific binding in the presence of 10 μM I-AB-MECA. […]

adenosine A3 receptors = biological target: T2, adenosine A3 receptors (Homo sapiens, UniProt P0DMS8); assay: A3 [35S]-GTPGammaS binding functional assay (SPA, CHO membranes); type: biochemical; conditions: agonist stimulation of [35S]-GTPγS binding
T2 construct: expressed in transfected cells; membranes prepared in house
T2 sequence (P0DMS8 1-318): T1 sequence (P0DMS8 1-318)
Method: To establish the functional response to compounds of this invention an assay was carried out measuring A3 agonist stimulation of [^35S]-GTPγS binding in membranes prepared from CHO cells stably expressing adenosine A3 receptors. The agonist-induced stimulation of binding of [^35S]-GTPγS to activated G proteins has been used as a functional assay for a variety of receptors, including adenosine receptors. See Lorenzen et al., Mol Pharmacol, Vol. 49, pp. 915-926 (1996); and Jacobson et al., Drug Dev Res Vol. 37, p. 131 (1996).
The conventional GTPγS binding assay described by Lorenzen et al (1996), supra, is a filtration based method and thus requires a separation step; we have modified this method to run as a SPA format so that it can be used in a semi-automated and homogenous formal. In the SPA assay membranes are captured by wheatgerm agglutinin (WGA) SPA beads, through a specific interaction between WGA and carbohydrate residues of glycoproteins on the surfaces for the membranes. Upon receptor stimulation, [^35S]-GTPγS binds specifically to the alpha subunit of the G-protein thus bringing the [^35S]-GTPγS into close proximity with the SPA beads. Emitted β particles from the [^35S]-GTPγS excite the scintillant in the beads and produce light.
The assay was performed in a final volume of 250 μL/well in a white non-binding surface 96-well Optiplate. […]

[1] = as described in WO 95/02604, cited from earlier work

| SMILES | Ki (human A3 receptors) | EC50 (adenosine A3 receptors) | increase in basal or systemic blood pressure ([1]; administration of IB-MECA) | basal or systemic blood pressure after administration ([1]; from about 70 mmHg) |
| --- | --- | --- | --- | --- |
| CC(=O)N[C@H]1C[C@@H](n2cnc3c(NCc4cccc(I)c4)nc(Cl)nc32)[C@H](O)[C@@H]1O [Example 1, N-{(1S,2R,3S,4R)-4-[2-Chloro-6-(3-iodobenzylamino)-purin-9-yl]-2,3-dihydroxycyclopentyl}-acetamide] | 0.91 nM | 11 nM |  |  |
| CNC(=O)[C@H]1O[C@@H](n2cnc3c(NCc4cccc(I)c4)ncnc32)[C@H](O)[C@@H]1O [IB-MECA] |  |  | 10 to 30% | about 90 mmHg |
